Assay results from patent US8378104B2 (OSI Pharmaceuticals, LLC, priority 2010, dated 2013).
Counter-ions that a name gives are not always drawn.

Biological target: T1, TAK1-TAB1 fusion protein (Homo sapiens, UniProt O43318)
T1 construct: purchased Carna
T1 sequence (O43318 with tags, fused parts or gaps limits assumed): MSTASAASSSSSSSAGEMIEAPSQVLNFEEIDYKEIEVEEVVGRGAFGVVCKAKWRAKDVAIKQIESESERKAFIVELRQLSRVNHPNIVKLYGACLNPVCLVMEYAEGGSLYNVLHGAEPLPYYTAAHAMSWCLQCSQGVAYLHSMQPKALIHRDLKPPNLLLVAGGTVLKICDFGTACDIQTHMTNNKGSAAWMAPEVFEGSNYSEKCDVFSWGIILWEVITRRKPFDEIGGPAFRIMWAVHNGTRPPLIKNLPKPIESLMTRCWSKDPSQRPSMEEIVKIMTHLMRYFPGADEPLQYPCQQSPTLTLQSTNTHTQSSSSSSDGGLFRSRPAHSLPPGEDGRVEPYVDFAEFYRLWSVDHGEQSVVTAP
Assay: TAK1 biochemical assay (AlphaScreen, GST-MAP2K7 substrate)
Details: not given

`Cc1c(-c2cnc(N)c3oc(-c4csc5cnccc45)cc23)cnn1C` [Example 292, 4-(1,5-dimethyl-1H-pyrazol-4-yl)-2-thieno[2,3-c]pyridin-3-yl-furo[2,3-c]pyridin-7-ylamine] was tested. Which IC50 did it give?
The IC50 was 1 to 10 µM.

Same assay, conditions: TAK1-TAB1 fusion protein, GST-MAP2K7 substrate; read-out: mean TAK1 IC50 (Col. A)

For `CC(=O)N1CCC(n2cc(-c3cnc(N)c4oc(-c5cccc(OCc6cccnc6)c5)cc34)cn2)CC1` [Example 202, 1-[4-(4-{7-amino-2-[3-(pyridin-3-ylmethoxy)phenyl]furo[2,3-c]pyridin-4-yl}-1H-pyrazol-1-yl)piperidin-1-yl]ethanone], which IC50 is on record?
Its IC50 is 1 to 10 µM.

`CC(=O)N1CCC(n2cc(-c3cnc(N)c4oc(-c5c(F)ccc6ncsc56)cc34)cn2)CC1` [Example 358, 1-(4-{4-[7-amino-2-(6-fluoro-1,3-benzothiazol-7-yl)furo[2,3-c]pyridin-4-yl]-1H-pyrazol-1-yl}piperidin-1-yl)ethanone bis(trifluoroacetate)] was tested. Which IC50 did it give?
The IC50 was 0.1 to 1 µM.

With `Nc1ncc(-c2cnn(C3CCNCC3)c2)c2cc(-c3cccc4cn[nH]c34)oc12` [Example 45, 2-(1H-indazol-7-yl)-4-[1-(piperidin-4-yl)-1H-pyrazol-4-yl]furo[2,3-c]pyridin-7-amine] as the molecule, how does the IC50 read?
The IC50 was 0.1 to 1 µM.

How did the IC50 turn out when `CC(=O)N1CCC(n2cc(-c3cnc(N)c4oc(-c5cccc(C(=O)N6CCOCC6)c5)cc34)cn2)CC1` [Example 127, 1-[4-(4-{7-amino-2-[3-(morpholin-4-ylcarbonyl)phenyl]furo[2,3-c]pyridin-4-yl}-1H-pyrazol-1-yl)piperidin-1-yl]ethanone] was run?
The IC50 was 1 to 10 µM.

With `CC(=O)N1CCC(n2cc(-c3cnc(N)c4oc(C5=CCCC5)cc34)cn2)CC1` [Example 153, 1-(4-{4-[7-amino-2-(cyclopent-1-en-1-yl)furo[2,3-c]pyridin-4-yl]-1H-pyrazol-1-yl}piperidin-1-yl)ethanone] as the molecule, how does the IC50 read?
Its IC50 is 1 to 10 µM.

Which IC50 does the source give for `COc1cccc2cc(C=CC(=O)N3CCC(n4cc(-c5cnc(N)c6oc(-c7csc8cnccc78)cc56)cn4)CC3)oc12` [Example 333, 1-{4-[4-(7-amino-2-thieno[2,3-c]pyridin-3-yl-furo[2,3-c]pyridin-4-yl)-pyrazol-1-yl]-piperidin-1-yl}-3-(7-methoxy-benzo-furan-2-yl)-propenone] here?
The IC50 was 0.1 to 1 µM.

`Nc1ncc(-c2cnn(C3CCNCC3)c2)c2c(Cl)c(-c3ccc4[nH]ncc4c3)oc12` [Example 399, 3-chloro-2-(1H-indazol-5-yl)-4-[1-(piperidin-4-yl)-1H-pyrazol-4-yl]furo[2,3-c]pyridin-7-amine hydrochloride] was tested. Which IC50 did it give?
Its IC50 is 1 to 10 µM.

For `COC(=O)c1cc(-c2cnc(N)c3oc(-c4csc5cnccc45)cc23)cs1` [Example 378, 4-(7-amino-2-thieno[2,3-c]pyridin-3-yl-furo[2,3-c]pyridin-4-yl)-thiophene-2-carboxylic acid methyl ester], which IC50 is on record?
Its IC50 is greater than 10 µM.

How did the IC50 turn out when `Cc1c(-c2cnc(N)c3oc(-c4csc5cnccc45)cc23)cnn1[C@H]1CC[C@H](O)CC1` [Example 305, 4-[4-(7-amino-2-thieno[2,3-c]pyridin-3-yl-furo[2,3-c]pyridin-4-yl)-5-methyl-pyrazol-1-yl]-cyclohexanol] was run?
Its IC50 is 1 to 10 µM.

`CC(=O)N1CCC(n2cc(-c3cnc(N)c4oc(-c5ccc6c(c5)CC(=O)N6)cc34)cn2)CC1` [Example 103, 5-{4-[1-(1-acetylpiperidin-4-yl)-1H-pyrazol-4-yl]-7-aminofuro[2,3-c]pyridin-2-yl}-1,3-dihydro-2H-indol-2-one] was tested. Which IC50 did it give?
Its IC50 is 1 to 10 µM.

Which IC50 does the source give for `CC(=O)N1CCC(n2cc(-c3cnc(N)c4oc(-c5cccc(OCc6ccccn6)c5)cc34)cn2)CC1` [Example 199, 1-[4-(4-{7-amino-2-[3-(Pyridin-2-ylmethoxy)phenyl]furo[2,3-c]pyridin-4-yl}-1H-pyrazol-1-yl)piperidin-1-yl]ethanone] here?
The IC50 was 1 to 10 µM.

With `Nc1ncc(-c2cnn(C3CCNCC3)c2)c2cc(-c3cccc4c3sc3ccccc34)oc12` [Example 37, 2-(dibenzo[b,d]thiophen-4-yl)-4-[1-(piperidin-4-yl)-1H-pyrazol-4-yl]furo[2,3-c]pyridine-7-amine] as the molecule, how does the IC50 read?
Its IC50 is 0.1 to 1 µM.

For `CC(=O)N1CCC(n2cc(-c3cnc(N)c4oc(-c5cccc(OCc6ccc(Cl)cc6)c5)cc34)cn2)CC1` [Example 206, 1-{4-[4-(7-amino-2-{3-[(4-chlorobenzyl)oxy]phenyl}furo[2,3-c]pyridin-4-yl)-1H-pyrazol-1-yl]piperidin-1-yl}ethanone], which IC50 is on record?
The IC50 was greater than 10 µM.

How did the IC50 turn out when `CC(=O)N1CCC(n2cc(-c3cnc(N)c4oc(-c5cccc(CN)c5)cc34)cn2)CC1` [Example 178, 1-[4-(4-{7-amino-2-[3-(aminomethyl)phenyl]furo[2,3-c]pyridin-4-yl}-1H-pyrazol-1-yl)piperidin-1-yl]ethanone] was run?
The IC50 was 0.1 to 1 µM.

With `CC(=O)N1CCC(n2cc(-c3cnc(N)c4oc(-c5cnc6cnccn56)cc34)cn2)CC1` [Example 274, 1-(4-{4-[7-amino-2-(imidazol[1,2-a]pyrazin-3-yl)furo[2,3-c]pyridin-4-yl]-1H-pyrazol-1-yl}piperidin-1-yl)ethanone trifluoroacetic acid salt] as the molecule, how does the IC50 read?
Its IC50 is 1 to 10 µM.

Which IC50 does the source give for `COC(=O)c1csc(-c2cnc(N)c3oc(-c4csc5cnccc45)cc23)c1` [Example 380, 5-(7-amino-2-thieno[2,3-c]pyridin-3-yl-furo[2,3-c]pyridin-4-yl)-thiophene-3-carboxylic acid methyl ester] here?
Its IC50 is 1 to 10 µM.

Which IC50 does the source give for `Nc1ncc(-c2cnn([C@H]3CC[C@H](O)CC3)c2)c2cc(-c3cccc4ccsc34)oc12` [Example 232, trans-4-{4-[7-amino-2-(1-benzothiophen-7-yl)furo[2,3-c]pyridin-4-yl]-1H-pyrazol-1-yl}cyclohexanol diformate salt] here?
Its IC50 is 0.1 to 1 µM.

With `CC(=O)N1CCC(n2cc(-c3cnc(N)c4oc(-c5ccc(N)cc5)cc34)cn2)CC1` [Example 183, 1-(4-{4-[7-amino-2-(4-aminophenyl)furo[2,3-c]pyridin-4-yl]-1H-pyrazol-1-yl}piperidin-1-yl)ethanone] as the molecule, how does the IC50 read?
The IC50 was 1 to 10 µM.

`CC(=O)N1CCC(n2cc(-c3cnc(N)c4oc(-c5c[nH]c6ccccc56)cc34)cn2)CC1` [Example 188, 1-(4-{4-[7-amino-2-(1H-indol-3-yl)furo[2,3-c]pyridin-4-yl]-1H-pyrazol-1-yl}piperidin-1-yl)ethanone] was tested. Which IC50 did it give?
Its IC50 is greater than 10 µM.

Which IC50 does the source give for `CC(=O)N1CCC(n2cc(-c3cnc(N)c4oc(-c5ccc(NS(C)(=O)=O)cc5)cc34)cn2)CC1` [Example 121, N-(4-{4-[1-(1-acetylpiperidin-4-yl)-1H-pyrazol-4-yl]-7-aminofuro[2,3-c]pyridin-2-yl}phenyl)methanesulfonamide] here?
Its IC50 is 1 to 10 µM.

`Nc1ncc(-c2cnn(C3CCN(C(=O)CCC4CCCC4)CC3)c2)c2cc(-c3csc4cnccc34)oc12` [Example 335, 1-{4-[4-(7-Amino-2-thieno[2,3-c]pyridin-3-yl-furo[2,3-c]pyridin-4-yl)-pyrazol-1-yl]-piperidin-1-yl}-3-cyclopentyl-propan-1-one] was tested. Which IC50 did it give?
The IC50 was 1 to 10 µM.

Which IC50 does the source give for `CSc1nc2cccc(-c3cc4c(-c5cnn(C6CCN(C(C)=O)CC6)c5)cnc(N)c4o3)c2s1` [Example 352, 1-[4-(4-{7-amino-2-[2-(methylsulfanyl)-1,3-benzothiazol-7-yl]furo[2,3-c]pyridin-4-yl}-1H-pyrazol-1-yl)piperidin-1-yl]ethanone trifluoroacetate] here?
Its IC50 is 1 to 10 µM.

For `Nc1ncc(-c2cnn([C@H]3CC[C@H](O)CC3)c2)c2cc(-c3cccc4ncccc34)oc12` [Example 235, trans-4-{4-[7-amino-2-(quinolin-5-yl)furo[2,3-c]pyridin-4-yl]-1H-pyrazol-1-yl}cyclohexanol], which IC50 is on record?
The IC50 was 1 to 10 µM.
